Measurements as given in patent publication US7300939B2, “Substituted 1-propiolylpiperazine compounds, their preparation and use” (Gruenenthal GmbH, priority 2005, dated 2007).

Target: T1, mGluR5 receptor (Sus scrofa, UniProt I3LUI7)
T1 construct: from tissue; host or cells: pig brain halves without medulla, cerebellum and pons
Experiment: [3H]-MPEP binding in the mGluR5 receptor binding assay (pig brain homogenate)
Settings: for mGluR5-receptor (% inhibition 10 μM) in pigs: pig brain homogenate, 5 nM [3H]-MPEP; for IC50: Table II, unit inferred
Protocol: I. Method the Determination of the Inhibition of the [^3H]-MPEP Binding in the mGluR5 Receptor Binding Assay
Pig brain homogenate is prepared by homogenization (Polytron PT 3000, Kinematica AG, 10,000 revolutions per minute 90 seconds) of pig brain halves without medulla, cerebellum and pons in a buffer solution having a pH of 8.0 (30 mM of hepes, Sigma, order no. H3375+1 tablet of Complete to 100 ml, Roche Diagnostics, order no. 1836145) in a ratio of 1:20 (brain weight/volume) and differential centrifugation at 900×g and 40,000×g. In each case 450 μg of protein from brain homogenate are incubated with 5 nM [^3H]-MPEP (Tocris, order no. R1212) (MPEP=2-methyl-6-(3-methoxyphenyl)ethynylpyridine) and the compounds to be investigated (10 μM in the test) in a buffer solution (as above) in 250 μl incubation batches in 96-well microtiter plates at room temperature 60 min.
Thereafter, the batches are filtered with the aid of a Brandel cell harvester (Brandel, Robotic 9600 model) onto Unifilter plates with glass fiber filter mats (Perkin Elmer, order no. 6005177) and then rinsed with buffer solution (as above) 3 times with 250 μl per sample each time. The filter plates are then dried 60 min at 55° C. 30 μl Ultima Gold™ scintillator (Packard BioScience, order no. 6013159) are subsequently added per well and, after 3 hours, the samples are measured on a β-counter (Mikrobeta, Perkin Elmer). The non-specific binding is determined by addition of 10 μM of MPEP (Tocris, order no. 1212).

T1 sequence (I3LUI7 19-1212): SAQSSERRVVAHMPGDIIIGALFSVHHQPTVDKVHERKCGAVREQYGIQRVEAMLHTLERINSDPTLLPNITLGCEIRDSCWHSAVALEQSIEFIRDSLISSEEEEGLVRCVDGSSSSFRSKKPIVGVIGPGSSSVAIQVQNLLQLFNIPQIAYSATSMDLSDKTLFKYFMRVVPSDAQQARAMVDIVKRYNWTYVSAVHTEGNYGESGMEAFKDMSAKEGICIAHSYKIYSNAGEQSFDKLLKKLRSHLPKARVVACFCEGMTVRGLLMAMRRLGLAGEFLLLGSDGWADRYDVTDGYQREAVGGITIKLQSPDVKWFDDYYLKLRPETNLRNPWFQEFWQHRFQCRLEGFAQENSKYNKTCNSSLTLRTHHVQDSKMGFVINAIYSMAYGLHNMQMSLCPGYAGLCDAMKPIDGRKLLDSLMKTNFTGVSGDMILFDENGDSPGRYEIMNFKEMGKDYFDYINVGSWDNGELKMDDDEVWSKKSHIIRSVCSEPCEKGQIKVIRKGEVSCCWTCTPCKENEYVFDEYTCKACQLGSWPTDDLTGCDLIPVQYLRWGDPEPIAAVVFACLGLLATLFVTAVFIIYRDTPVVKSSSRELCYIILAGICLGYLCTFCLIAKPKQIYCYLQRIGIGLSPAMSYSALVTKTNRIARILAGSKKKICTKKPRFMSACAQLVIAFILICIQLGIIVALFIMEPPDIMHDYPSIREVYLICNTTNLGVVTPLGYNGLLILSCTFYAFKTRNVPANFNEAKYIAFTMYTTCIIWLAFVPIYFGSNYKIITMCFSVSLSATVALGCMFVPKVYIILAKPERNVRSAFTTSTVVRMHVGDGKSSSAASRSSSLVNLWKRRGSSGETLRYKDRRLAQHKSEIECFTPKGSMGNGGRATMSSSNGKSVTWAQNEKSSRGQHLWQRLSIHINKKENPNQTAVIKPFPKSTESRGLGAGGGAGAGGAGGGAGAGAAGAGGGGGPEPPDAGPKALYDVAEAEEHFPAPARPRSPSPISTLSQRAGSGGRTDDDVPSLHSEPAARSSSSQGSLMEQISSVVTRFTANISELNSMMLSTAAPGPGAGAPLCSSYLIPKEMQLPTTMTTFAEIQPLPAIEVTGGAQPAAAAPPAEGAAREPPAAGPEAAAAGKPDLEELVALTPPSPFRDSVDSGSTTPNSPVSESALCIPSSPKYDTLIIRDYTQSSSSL

Row | mGluR5-receptor (% inhibition 10 μM) in pigs [%] | IC50 [nM] | Structure (SMILES)
1 | 33 |  | CC(C)(C)c1nsc(N2CCN(C(=O)C#Cc3cccs3)CC2)n1 [CCC16, 4-(3-tert-Butyl-1,2,4-thiadiazol-5-yl)-1-(3-(thiophen-2-yl)propiolyl)piperazine]
2 | 93 |  | Cc1cccc(C#CC(=O)N2CCN(c3nc(C)cs3)CC2)c1 [CCC31, 4-(4-Methylthiazol-2-yl)-1-(3-(tol-3-yl)propiolyl)piperazine]
3 |  | 260 | CCc1cccc(C#CC(=O)N2CCN(c3nccs3)CC2)c1 [Example AAA00120, 4-(Thiazol-2-yl)-1-(3-(3-ethylphenyl)propiolyl)piperazine]
4 | 86 |  | Cc1nc(N2CCN(C(=O)C#Cc3ccccc3)CC2)sc1C [Example AAA89, 4-(4,5-Dimethylthiazol-2-yl)-1-(3-phenylpropiolyl)piperazine]
5 | 72 |  | CN(C)C(=O)c1cnc(N2CCN(C(=O)C#Cc3ccccc3)CC2)s1 [Example AAA81, 4-(5-Dimethylaminocarbonylthiazol-2-yl)-1-(3-phenylpropiolyl)piperazine]
6 | 82 |  | O=C(C#Cc1cccc([N+](=O)[O-])c1)N1CCN(c2nccs2)CC1 [Example AAA28, 4-(Thiazol-2-yl)-1-(3-(3-nitrophenyl)propiolyl)piperazine]
7 | 74 |  | Cn1ccc2cc(C#CC(=O)N3CCN(c4nccs4)CC3)ccc21 [Example AAA39, 4-(Thiazol-2-yl)-1-(3-(1-methyl-indol-5-yl)propiolyl)piperazine]
8 | 40 |  | CC(C)c1cccc(C#CC(=O)N2CCN(c3nccs3)CC2)c1 [Example AAA36, 4-(Thiazol-2-yl)-1-(3-(3-isopropylphenyl)propiolyl)piperazine]
9 |  | 3190 | O=C(C#Cc1ccoc1)N1CCN(c2nccs2)CC1 [Example AAA74, 4-(Thiazol-2-yl)-1-(3-(3-furyl)propiolyl)piperazine]
10 | 93 |  | O=C(C#Cc1ccccc1)N1CCN(c2nc(Cc3ccc(F)cc3)ns2)CC1 [Example AAA85, 4-(3-(4-Fluorobenzyl)-1,2,4-thiadiazol-5-yl)-1-(3-phenylpropiolyl)piperazine]
11 | 65 |  | O=C(C#Cc1ccccc1)N1CCN(c2nc(C(F)(F)F)ns2)CC1 [Example AAA00105, 4-(3-Trifluoromethyl-1,2,4-thiadiazol-5-yl)-1-(3-phenylpropiolyl)piperazine]
12 | 31 |  | O=C(C#Cc1ccccc1)N1CCN(c2ncc([N+](=O)[O-])s2)CC1 [Example AAA86, 4-(5-Nitrothiazol-2-yl)-1-(3-phenylpropiolyl)piperazine]
13 | 91 |  | Cc1nsc(N2CCN(C(=O)C#Cc3ccccc3)CC2)n1 [Example AAA00104, 4-(3-Methyl-1,2,4-thiadiazol-5-yl)-1-(3-phenylpropiolyl)piperazine]
14 | 25 |  | Cc1ccccc1C#CC(=O)N1CCN(c2nc(-c3ccc(F)cc3)ns2)CC1 [CCC8, 4-(3-(4-Fluorophenyl)-1,2,4-thiadiazol-5-yl)-1-(3-(tol-2-yl)propiolyl)piperazine]
15 | 94 |  | Cc1cnc(N2CCN(C(=O)C#Cc3ccccc3)CC2)s1 [Example AAA88, 4-(5-Methylthiazol-2-yl)-1-(3-phenylpropiolyl)piperazine]
16 | 93 |  | C[C@@H]1CN(c2nccs2)CCN1C(=O)C#Cc1ccccc1 [Example AAA65, (R)-2-Methyl-4-(thiazol-2-yl)-1-(3-phenylpropiolyl)piperazine]
17 | 25 |  | O=C(C#Cc1ccc(F)cc1)N1CCN(c2nc(-c3ccccc3)ns2)CC1 [CCC5, 4-(3-Phenyl-1,2,4-thiadiazol-5-yl)-1-(3-(4-fluorophenyl)propiolyl)piperazine]
18 | 70 |  | O=C(C#Cc1ccccc1Cl)N1CCN(c2nccs2)CC1 [Example AAA23, 4-(Thiazol-2-yl)-1-(3-(2-chlorophenyl)propiolyl)piperazine]
19 | 89 |  | CC1CN(c2nccs2)CCN1C(=O)C#Cc1ccccc1 (stereo not drawn) [Example AAA63, 2-Methyl-4-(thiazol-2-yl)-1-(3-phenylpropiolyl)piperazine]
20 | 82 |  | O=C(C#Cc1ccc2ccccc2c1)N1CCN(c2nccs2)CC1 [Example AAA38, 4-(Thiazol-2-yl)-1-(3-naphth-2-ylpropiolyl)piperazine]

Row | mGluR5-receptor (% inhibition 10 μM) in pigs [%] | IC50 [nM] | Structure (SMILES)
21 | 83 |  | O=C(C#Cc1cccc(O)c1)N1CCN(c2nccs2)CC1 [Example AAA43, 4-(Thiazol-2-yl)-1-(3-(3-hydroxyphenyl)propiolyl)piperazine]
22 | 88 |  | COCc1cccc(C#CC(=O)N2CCN(c3nccs3)CC2)c1 [Example AAA42, 4-(Thiazol-2-yl)-1-(3-(3-methoxymethylphenyl)propiolyl)piperazine]
23 | 35 |  | O=C(C#Cc1ccc(O)cc1)N1CCN(c2nccs2)CC1 [Example AAA5, 4-(Thiazol-2-yl)-1-(3-(4-hydroxyphenyl)propiolyl)piperazine]
24 | 30 |  | COc1ccc(Br)c(C#CC(=O)N2CCN(c3nccs3)CC2)c1 [CCC23, 4-(Thiazol-2-yl)-1-(3-(2-bromo-5-methoxyphenyl)propiolyl)piperazine]
25 | 31 |  | Cc1cccc(C#CC(=O)N2CCN(c3nccs3)CC2)c1F [Example AAA00111, 4-(Thiazol-2-yl)-1-(3-(2-fluoro-3-methylphenyl)propiolyl)piperazine]
26 | 87 |  | O=C(C#Cc1ccccc1)N1CCN(c2nc(-c3ccccc3)cs2)CC1 [Example AAA99, 4-(4-Phenylthiazol-2-yl)-1-(3-phenylpropiolyl)piperazine]
27 |  | 830 | O=C(C#Cc1ccccc1F)N1CCN(c2nccs2)CC1 [Example AAA21, 4-(Thiazol-2-yl)-1-(3-(2-fluorophenyl)propiolyl)piperazine]
28 | 33 |  | Cc1ccccc1C#CC(=O)N1CCN(c2nccs2)CC1.Cl [Example AAA53, 4-(Thiazol-2-yl)-1-(3-(2-tolyl)propiolyl)piperazine hydrochloride]
29 | 83 |  | O=C(C#Cc1ccccc1)N1CCN(c2ncns2)CC1 [Example AAA00103, 4-(1,2,4-Thiadiazol-5-yl)-1-(3-phenylpropiolyl)piperazine]
30 |  | 450 | O=C(C#Cc1ccccc1O)N1CCN(c2nccs2)CC1 [Example AAA4, 4-(Thiazol-2-yl)-1-(3-(2-hydroxyphenyl)propiolyl)piperazine]
31 |  | 560 | CNc1cccc(C#CC(=O)N2CCN(c3nccs3)CC2)c1 [Example AAA00112, 4-(Thiazol-2-yl)-1-(3-(3-methylaminophenyl)propiolyl)piperazine]
32 | 54 |  | N#Cc1ccccc1C#CC(=O)N1CCN(c2nccs2)CC1 [Example AAA15, 4-(Thiazol-2-yl)-1-(3-(2-cyanophenyl)propiolyl)piperazine]
33 |  | 26 | C#Cc1cccc(C#CC(=O)N2CCN(c3nccs3)CC2)c1 [Example AAA00117, 4-(Thiazol-2-yl)-1-(3-(3-ethynylphenyl)propiolyl)piperazine]
34 |  | 93 | Cc1csc(C#CC(=O)N2CCN(c3nccs3)CC2)c1 [AAA00118, 4-(Thiazol-2-yl)-1-(3-(4-methylthiophen-2-yl)propiolyl)piperazine]
35 | 72 |  | C[C@H]1CN(c2nccs2)CCN1C(=O)C#Cc1ccccc1 [Example AAA64, (S)-2-Methyl-4-(thiazol-2-yl)-1-(3-phenylpropiolyl)piperazine]
36 | 43 |  | COC(=O)c1cccc(C#CC(=O)N2CCN(c3nccs3)CC2)c1 [Example AAA49, 4-(Thiazol-2-yl)-1-(3-(3-carboxyphenyl)propiolyl)piperazine methyl ester]
37 |  | 38 | CCC1CN(c2nccs2)CCN1C(=O)C#Cc1ccccc1 (stereo not drawn) [Example AAA71, 2-Ethyl-4-(thiazol-2-yl)-1-(3-phenylpropiolyl)piperazine]
38 | 30 |  | CC(=O)Nc1cccc(C#CC(=O)N2CCN(c3nccs3)CC2)c1 [Example AAA44, 4-(Thiazol-2-yl)-1-(3-(3-acetaminophenyl)propiolyl)piperazine]
39 | 14 |  | CN(C)C(=O)C#CC(=O)N1CCN(c2nccs2)CC1 [Example AAA00114, 4-(Thiazol-2-yl)-1-(dimethylcarbamoylpropiolyl)piperazine]
